These results are taken from patent US11213530B2, “Gallium in the treatment of coronavirus disease” (priority 2020, dated 2022).

The assay deals with SARS-CoV-2 (WIV04). Format: cell-based. The settings on record: Vero-E6 cells.

Molecules are shown by their SMILES.

Take `Cc1occc(=O)c1[O-].Cc1occc(=O)c1[O-].Cc1occc(=O)c1[O-].[Ga+3]` [gallium maltolate]: the “in vitro antiviral activity” value (MOI 0.005, 0.1 μM to 100 μM, 24 hours, FIG. 1) is “pronounced, dose-dependent in vitro antiviral activity”. For the same molecule, the EC50 (MOI 0.005, viral RNA in culture media by qRT-PCR at 24 hours after treatment, read-out: concentration that inhibited viral replication by 50% (EC50)) was approximately 14 µM.
